Data on three compounds can be found in ChEMBL document CHEMBL1201862, “PubChem BioAssay data set” (2004).

Holding throughout (assay type): functional
Test [1] concerns the target Proto-oncogene tyrosine-protein kinase receptor Ret (Homo sapiens, UniProt P07949).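 Note: measured within a kinome-wide profiling panel, RET as the panel member.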
For test [2], the target named is LIM domain kinase 1 (Homo sapiens, UniProt P53667). The test can be described thus: Navigating the Kinome. Panel member name: LIMK1.
The target of test [3] is Death-associated protein kinase 3 (Homo sapiens, UniProt O43293).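 Note: measured as one member of a kinome-wide profiling panel.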
Test [4] has as its target Rho-associated protein kinase 1 (Homo sapiens, UniProt Q13464).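 Note: measured within a broad kinome-wide panel profiling many kinases.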
The target in test [5] is Cyclin-dependent kinase 9 (Homo sapiens, UniProt P50750).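 Note: value from the CDK9 entry of a kinome-spanning kinase panel.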
Test [6] addresses Vascular endothelial growth factor receptor 1 (Homo sapiens, UniProt P17948).
Test [7] addresses Dual specificity tyrosine-phosphorylation-regulated kinase 1A (Homo sapiens, UniProt Q13627).
For test [8], the target named is Platelet-derived growth factor receptor alpha (Homo sapiens, UniProt P16234). The experiment in a line: Navigating the Kinome. Panel member name: PDGFRA.
Test [9] concerns the target Leukocyte tyrosine kinase receptor (Homo sapiens, UniProt P29376). The experiment in a line: Navigating the Kinome. Panel member name: LTK.
In test [10] the target is Hepatocyte growth factor receptor (Homo sapiens, UniProt P08581).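 Note: kinase panel profiling across the kinome, with MET as the panel member.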
For test [11], the target named is Inhibitor of nuclear factor kappa-B kinase subunit epsilon (Homo sapiens, UniProt Q14164). The test can be described thus: Navigating the Kinome. Panel member name: IKBKE.
Test [12] has as its target Macrophage-stimulating protein receptor (Homo sapiens, UniProt Q04912). The test can be described thus: Navigating the Kinome. Panel member name: MST1R.
The target of test [13] is Tyrosine-protein kinase Lck (Homo sapiens, UniProt P06239).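 Note: lck was assayed as one member of a kinase panel.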
The target in test [14] is Aurora kinase B (Homo sapiens, UniProt Q96GD4).
Test [15] addresses Receptor-type tyrosine-protein kinase FLT3 (Homo sapiens, UniProt P36888).
The target in test [16] is Cell division cycle 7-related protein kinase (Homo sapiens, UniProt O00311).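 Note: value obtained from a kinome-wide kinase panel.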
Test [17] deals with High affinity nerve growth factor receptor (Homo sapiens, UniProt P04629).
For test [18], the target named is Insulin-like growth factor 1 receptor (Homo sapiens, UniProt P08069). The test can be described thus: Navigating the Kinome. Panel member name: IGF1R.
Test [19] concerns the target T1, Serine/threonine-protein kinase TAO1 (Homo sapiens, UniProt Q7L7X3).
T1 sequence (Q7L7X3 whole entry): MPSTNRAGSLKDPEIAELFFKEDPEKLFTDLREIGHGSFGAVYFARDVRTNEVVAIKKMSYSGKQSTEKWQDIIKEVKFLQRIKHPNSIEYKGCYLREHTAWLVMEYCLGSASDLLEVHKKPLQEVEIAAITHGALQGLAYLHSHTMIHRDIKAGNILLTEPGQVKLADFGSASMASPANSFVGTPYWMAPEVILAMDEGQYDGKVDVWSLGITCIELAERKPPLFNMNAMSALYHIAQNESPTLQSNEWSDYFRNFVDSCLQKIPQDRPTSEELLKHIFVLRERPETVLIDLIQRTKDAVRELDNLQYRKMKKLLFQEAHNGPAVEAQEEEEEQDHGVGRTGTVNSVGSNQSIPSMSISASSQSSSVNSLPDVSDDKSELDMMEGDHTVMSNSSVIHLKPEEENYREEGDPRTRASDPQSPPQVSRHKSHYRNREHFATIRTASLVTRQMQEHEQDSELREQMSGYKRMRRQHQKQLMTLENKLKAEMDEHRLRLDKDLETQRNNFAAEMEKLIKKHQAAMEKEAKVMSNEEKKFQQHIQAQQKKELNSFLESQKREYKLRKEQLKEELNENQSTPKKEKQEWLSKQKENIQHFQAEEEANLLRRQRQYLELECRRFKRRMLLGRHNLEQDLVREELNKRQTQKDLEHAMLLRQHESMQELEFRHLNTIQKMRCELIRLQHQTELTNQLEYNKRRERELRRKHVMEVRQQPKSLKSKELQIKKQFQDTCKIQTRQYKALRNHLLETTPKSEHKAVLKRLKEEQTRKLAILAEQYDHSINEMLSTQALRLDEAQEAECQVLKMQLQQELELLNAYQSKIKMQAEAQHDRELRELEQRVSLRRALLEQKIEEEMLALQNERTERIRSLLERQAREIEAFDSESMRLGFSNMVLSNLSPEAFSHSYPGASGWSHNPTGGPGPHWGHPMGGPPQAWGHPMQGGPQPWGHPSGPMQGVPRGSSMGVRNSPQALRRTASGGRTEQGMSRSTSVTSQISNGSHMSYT

The target of test [20] is cAMP-dependent protein kinase catalytic subunit PRKX (Homo sapiens, UniProt P51817).
For test [21], the target named is T2, Aurora kinase A (Homo sapiens, UniProt O14965).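 Note: value from the Navigating the Kinome kinase panel profiling, panel entry STK6.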
T2 sequence (O14965 whole entry): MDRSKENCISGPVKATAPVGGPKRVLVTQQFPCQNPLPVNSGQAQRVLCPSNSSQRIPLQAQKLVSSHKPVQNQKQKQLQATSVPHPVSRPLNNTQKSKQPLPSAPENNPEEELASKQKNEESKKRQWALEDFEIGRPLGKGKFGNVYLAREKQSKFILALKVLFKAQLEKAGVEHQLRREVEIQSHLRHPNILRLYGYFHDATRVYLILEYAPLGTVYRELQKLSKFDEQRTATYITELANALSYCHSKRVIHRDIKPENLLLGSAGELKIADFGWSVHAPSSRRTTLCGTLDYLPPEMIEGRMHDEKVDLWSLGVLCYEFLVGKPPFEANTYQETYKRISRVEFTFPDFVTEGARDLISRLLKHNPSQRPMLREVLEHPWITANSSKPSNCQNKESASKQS

In test [22] the target is Calcium/calmodulin-dependent protein kinase type II subunit alpha (Homo sapiens, UniProt Q9UQM7). The experiment in a line: Navigating the Kinome. Panel member name: CAMK2A.
Test [23] deals with Macrophage colony-stimulating factor 1 receptor (Homo sapiens, UniProt P07333).
Test [24] addresses Serine/threonine-protein kinase pim-1 (Homo sapiens, UniProt P11309).
Test [25] concerns the target Tyrosine-protein kinase JAK2 (Homo sapiens, UniProt O60674).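 Note: JAK2 tested as one member of a kinase panel.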
The target in test [26] is Tyrosine-protein kinase BTK (Homo sapiens, UniProt Q06187).
Test [27] concerns the target Focal adhesion kinase 1 (Homo sapiens, UniProt Q05397).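 Note: measured as one member of a kinome panel.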
Test [28] addresses BDNF/NT-3 growth factors receptor (Homo sapiens, UniProt Q16620).

Calls of active or inactive are those of the source. A value given as a limit tells only on which side of the number the result lay.

Sequence of Serine/threonine-protein kinase pim-1 (P11309 whole entry): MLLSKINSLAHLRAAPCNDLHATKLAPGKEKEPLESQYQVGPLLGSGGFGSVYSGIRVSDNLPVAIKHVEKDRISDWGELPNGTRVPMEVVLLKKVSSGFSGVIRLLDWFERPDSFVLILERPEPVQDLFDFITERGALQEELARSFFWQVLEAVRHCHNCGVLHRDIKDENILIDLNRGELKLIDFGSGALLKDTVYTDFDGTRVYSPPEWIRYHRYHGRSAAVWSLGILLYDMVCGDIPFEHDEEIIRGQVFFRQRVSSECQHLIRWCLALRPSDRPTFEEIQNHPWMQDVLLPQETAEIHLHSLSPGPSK
Sequence of Death-associated protein kinase 3 (O43293 whole entry): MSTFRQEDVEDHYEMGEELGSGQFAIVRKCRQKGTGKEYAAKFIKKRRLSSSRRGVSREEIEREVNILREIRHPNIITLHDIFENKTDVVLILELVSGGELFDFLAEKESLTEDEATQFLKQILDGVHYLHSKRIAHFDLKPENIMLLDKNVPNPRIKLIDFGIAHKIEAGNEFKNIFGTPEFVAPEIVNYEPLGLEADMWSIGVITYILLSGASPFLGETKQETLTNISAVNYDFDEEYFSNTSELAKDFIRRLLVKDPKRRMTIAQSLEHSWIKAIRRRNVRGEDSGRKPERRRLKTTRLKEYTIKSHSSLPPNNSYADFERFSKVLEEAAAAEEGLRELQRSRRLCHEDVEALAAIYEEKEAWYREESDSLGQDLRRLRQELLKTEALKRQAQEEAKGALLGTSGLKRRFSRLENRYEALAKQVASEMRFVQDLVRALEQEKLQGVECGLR
Sequence of Tyrosine-protein kinase BTK (Q06187 whole entry): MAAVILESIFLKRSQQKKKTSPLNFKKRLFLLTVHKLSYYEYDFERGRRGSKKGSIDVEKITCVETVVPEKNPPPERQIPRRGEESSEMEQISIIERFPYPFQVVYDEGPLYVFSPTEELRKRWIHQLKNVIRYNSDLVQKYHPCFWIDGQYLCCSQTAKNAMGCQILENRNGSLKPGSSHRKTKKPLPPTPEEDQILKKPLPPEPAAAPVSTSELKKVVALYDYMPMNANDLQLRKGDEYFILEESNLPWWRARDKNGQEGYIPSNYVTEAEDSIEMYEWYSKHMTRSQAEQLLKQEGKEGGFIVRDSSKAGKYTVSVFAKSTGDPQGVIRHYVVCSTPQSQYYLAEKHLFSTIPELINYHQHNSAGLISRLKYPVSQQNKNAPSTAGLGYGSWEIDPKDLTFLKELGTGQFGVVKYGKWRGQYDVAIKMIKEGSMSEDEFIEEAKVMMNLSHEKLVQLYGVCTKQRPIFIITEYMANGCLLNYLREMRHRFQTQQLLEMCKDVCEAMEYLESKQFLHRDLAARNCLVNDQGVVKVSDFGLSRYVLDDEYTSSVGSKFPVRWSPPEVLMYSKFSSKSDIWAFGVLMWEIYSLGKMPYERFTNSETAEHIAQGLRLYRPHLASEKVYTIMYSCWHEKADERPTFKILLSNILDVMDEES
Sequence of Rho-associated protein kinase 1 (Q13464 whole entry): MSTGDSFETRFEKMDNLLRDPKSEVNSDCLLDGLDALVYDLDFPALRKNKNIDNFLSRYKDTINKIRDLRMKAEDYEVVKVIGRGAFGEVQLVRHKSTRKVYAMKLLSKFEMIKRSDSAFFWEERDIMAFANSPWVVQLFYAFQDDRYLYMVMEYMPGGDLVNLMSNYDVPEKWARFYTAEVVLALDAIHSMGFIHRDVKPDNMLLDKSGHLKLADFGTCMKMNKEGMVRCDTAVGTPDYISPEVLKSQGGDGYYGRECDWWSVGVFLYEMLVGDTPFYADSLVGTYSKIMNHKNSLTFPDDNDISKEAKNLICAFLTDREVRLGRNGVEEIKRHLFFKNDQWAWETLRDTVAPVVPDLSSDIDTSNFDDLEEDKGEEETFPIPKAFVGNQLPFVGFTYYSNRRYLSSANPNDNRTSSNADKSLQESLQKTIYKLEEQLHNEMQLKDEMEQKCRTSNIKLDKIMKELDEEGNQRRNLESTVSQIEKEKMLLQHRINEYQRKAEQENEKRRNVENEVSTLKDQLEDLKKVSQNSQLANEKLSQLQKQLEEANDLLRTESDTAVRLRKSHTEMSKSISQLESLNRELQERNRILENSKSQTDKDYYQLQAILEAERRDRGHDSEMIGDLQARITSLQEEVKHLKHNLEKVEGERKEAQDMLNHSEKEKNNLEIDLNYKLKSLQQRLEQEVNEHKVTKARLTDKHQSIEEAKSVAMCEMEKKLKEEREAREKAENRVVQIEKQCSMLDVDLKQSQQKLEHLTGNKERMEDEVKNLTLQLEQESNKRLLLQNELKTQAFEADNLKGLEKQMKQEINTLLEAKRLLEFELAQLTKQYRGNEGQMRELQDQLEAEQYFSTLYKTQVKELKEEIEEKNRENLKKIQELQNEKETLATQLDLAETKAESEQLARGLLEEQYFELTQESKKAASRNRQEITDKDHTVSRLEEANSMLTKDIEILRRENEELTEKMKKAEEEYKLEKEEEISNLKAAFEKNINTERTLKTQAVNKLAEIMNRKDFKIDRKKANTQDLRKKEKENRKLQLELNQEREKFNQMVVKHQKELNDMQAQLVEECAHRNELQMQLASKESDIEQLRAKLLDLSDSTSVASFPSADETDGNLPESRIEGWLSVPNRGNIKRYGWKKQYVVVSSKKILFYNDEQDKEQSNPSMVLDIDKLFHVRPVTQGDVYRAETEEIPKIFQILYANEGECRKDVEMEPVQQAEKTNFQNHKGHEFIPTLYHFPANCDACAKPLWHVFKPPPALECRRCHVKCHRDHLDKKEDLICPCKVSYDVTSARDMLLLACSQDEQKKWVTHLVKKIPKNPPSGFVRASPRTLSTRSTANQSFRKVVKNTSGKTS
Sequence of LIM domain kinase 1 (P53667 whole entry, the tested form may be a part): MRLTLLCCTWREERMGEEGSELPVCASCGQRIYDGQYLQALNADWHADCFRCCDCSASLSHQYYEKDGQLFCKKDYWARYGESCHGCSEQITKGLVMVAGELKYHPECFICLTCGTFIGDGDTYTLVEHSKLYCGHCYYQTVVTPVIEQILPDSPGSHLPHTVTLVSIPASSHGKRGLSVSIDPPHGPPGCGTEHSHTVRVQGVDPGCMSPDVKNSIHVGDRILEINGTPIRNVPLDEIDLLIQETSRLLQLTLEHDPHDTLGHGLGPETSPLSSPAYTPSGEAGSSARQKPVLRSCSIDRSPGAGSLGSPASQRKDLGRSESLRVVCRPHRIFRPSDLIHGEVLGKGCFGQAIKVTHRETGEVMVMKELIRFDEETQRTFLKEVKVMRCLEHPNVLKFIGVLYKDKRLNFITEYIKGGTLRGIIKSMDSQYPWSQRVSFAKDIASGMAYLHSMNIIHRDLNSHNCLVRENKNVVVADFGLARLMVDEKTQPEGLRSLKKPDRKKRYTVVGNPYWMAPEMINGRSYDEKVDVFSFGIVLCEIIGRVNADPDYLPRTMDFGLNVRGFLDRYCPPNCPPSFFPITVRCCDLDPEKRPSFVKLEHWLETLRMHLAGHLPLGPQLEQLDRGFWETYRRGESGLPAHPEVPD
Sequence of cAMP-dependent protein kinase catalytic subunit PRKX (P51817 whole entry): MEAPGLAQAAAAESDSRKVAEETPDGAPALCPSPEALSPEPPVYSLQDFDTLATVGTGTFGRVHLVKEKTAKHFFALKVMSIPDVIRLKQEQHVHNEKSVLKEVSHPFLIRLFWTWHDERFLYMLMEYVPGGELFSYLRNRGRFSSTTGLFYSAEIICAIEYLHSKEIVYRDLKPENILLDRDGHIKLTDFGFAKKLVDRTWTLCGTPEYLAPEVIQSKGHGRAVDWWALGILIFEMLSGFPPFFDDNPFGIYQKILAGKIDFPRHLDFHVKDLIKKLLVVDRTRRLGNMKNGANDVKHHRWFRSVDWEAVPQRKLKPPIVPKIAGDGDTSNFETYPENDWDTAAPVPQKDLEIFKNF
Sequence of Calcium/calmodulin-dependent protein kinase type II subunit alpha (Q9UQM7 whole entry): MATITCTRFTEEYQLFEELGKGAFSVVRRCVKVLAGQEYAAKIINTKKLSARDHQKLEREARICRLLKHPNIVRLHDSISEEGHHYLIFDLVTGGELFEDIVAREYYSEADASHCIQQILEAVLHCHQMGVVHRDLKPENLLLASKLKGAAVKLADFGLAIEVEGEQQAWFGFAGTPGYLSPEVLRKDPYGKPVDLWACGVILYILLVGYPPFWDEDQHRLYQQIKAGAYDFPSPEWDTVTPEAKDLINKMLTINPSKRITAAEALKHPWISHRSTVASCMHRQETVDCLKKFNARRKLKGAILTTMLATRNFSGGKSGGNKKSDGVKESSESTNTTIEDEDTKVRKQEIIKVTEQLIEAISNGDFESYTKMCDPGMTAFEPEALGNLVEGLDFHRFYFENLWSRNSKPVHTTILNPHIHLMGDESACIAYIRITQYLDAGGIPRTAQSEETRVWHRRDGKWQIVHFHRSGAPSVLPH
Sequence of Cyclin-dependent kinase 9 (P50750 whole entry): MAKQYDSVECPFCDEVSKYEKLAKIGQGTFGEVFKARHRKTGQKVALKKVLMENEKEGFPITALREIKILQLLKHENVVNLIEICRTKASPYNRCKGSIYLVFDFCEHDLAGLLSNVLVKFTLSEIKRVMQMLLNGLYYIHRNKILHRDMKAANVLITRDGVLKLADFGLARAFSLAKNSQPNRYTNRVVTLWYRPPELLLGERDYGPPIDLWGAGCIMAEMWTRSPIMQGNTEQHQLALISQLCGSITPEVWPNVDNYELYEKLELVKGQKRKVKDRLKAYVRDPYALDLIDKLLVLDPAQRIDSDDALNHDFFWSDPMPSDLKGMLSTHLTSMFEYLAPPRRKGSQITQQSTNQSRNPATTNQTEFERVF
Sequence of Aurora kinase B (Q96GD4 whole entry): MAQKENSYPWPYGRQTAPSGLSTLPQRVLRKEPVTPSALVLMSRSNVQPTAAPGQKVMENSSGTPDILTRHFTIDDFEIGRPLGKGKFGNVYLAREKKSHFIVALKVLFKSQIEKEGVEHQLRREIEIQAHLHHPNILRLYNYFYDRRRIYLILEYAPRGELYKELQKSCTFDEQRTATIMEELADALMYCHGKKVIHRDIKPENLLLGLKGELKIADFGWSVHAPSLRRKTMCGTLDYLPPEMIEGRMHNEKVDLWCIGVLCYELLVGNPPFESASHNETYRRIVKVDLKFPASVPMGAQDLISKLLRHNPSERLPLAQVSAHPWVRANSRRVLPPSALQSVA

On to `O=C(Nc1n[nH]c2ccc(-c3cn(Cc4ccccc4)nn3)cc12)c1cc(F)ccc1F`, for which the inhibition constant Ki is 2000 nM (active) in test [1]; > 3160 nM (inactive) in test [2]; 50.1 nM (active) in test [3]; > 2000 nM (inactive) in test [4]; 398 nM (active) in test [5]; > 3980 nM (inactive) in test [6]. The Ki is 50.1 nM (active) in test [7]; > 2510 nM (inactive) in test [8]; > 2510 nM (inactive) in [9]; > 2510 nM (inactive) in test [10]; 1260 nM (active) in test [11]; 2510 nM (active) in test [12]. Also, the Ki in [13] was > 6310 nM (inactive); in [14], > 3980 nM (inactive); in [15], > 2000 nM (inactive); in test [16], 3.16 nM (active); in test [17] it was > 3160 nM (inactive); in [18], > 2510 nM (inactive). Further, the Ki is > 6310 nM (inactive) in [19]; 316 nM (active) in test [20]; > 1580 nM (inactive) in test [21]; > 3980 nM (inactive) in [22]; > 2510 nM (inactive) in [23]; 3980 nM (active) in [24]. In addition, the Ki in test [25] is > 2510 nM (inactive); in [26], > 6310 nM (inactive); in [27] it was > 6310 nM (inactive); in test [28], > 3980 nM (inactive).

In the case of `CS(=O)(=O)Nc1ccc(Nc2ccc3[nH]nc(N)c3c2)cc1`, the Ki in test [2] is 501 nM (active); in [3], > 5010 nM (inactive); in test [4] it was 1580 nM (active); in test [13] it was > 6310 nM (inactive); in test [19], > 6310 nM (inactive); in [24], > 6310 nM (inactive). Besides, the Ki in [26] and in test [27] was > 6310 nM (inactive) each time.

For the compound `CS(=O)(=O)N(Cc1ccc2[nH]c(=O)c3cccn3c2c1)C1CC1`, the Ki in test [1] is > 1580 nM (inactive); in test [2] it was > 3160 nM (inactive); in [3], > 3160 nM (inactive); in test [4] it was > 6310 nM (inactive); in test [5] it was > 1580 nM (inactive); in test [6], > 2000 nM (inactive). Moreover, the Ki in test [7] is > 3980 nM (inactive); in [8], > 2510 nM (inactive); in test [9], > 2510 nM (inactive); in [10], > 2510 nM (inactive); in test [11], > 3160 nM (inactive); in [12], > 3980 nM (inactive). The Ki in test [14] was > 1260 nM (inactive); in test [15], > 2510 nM (inactive); in test [16], 100 nM (active); in [17], > 1580 nM (inactive); in test [18] it was > 1260 nM (inactive); in test [19] it was > 3980 nM (inactive). Besides, the Ki was > 1580 nM (inactive) in test [20]; > 794 nM (inactive) in [21]; > 3980 nM (inactive) in test [22]; > 1580 nM (inactive) in [23]; > 5010 nM (inactive) in test [24]; > 1580 nM (inactive) in test [25]. In addition, the Ki was > 3160 nM (inactive) in [26] and > 3980 nM (inactive) in [28].
